Measurements as given in PMC4112042, “Phase 1 dose-escalation study of the PARP inhibitor CEP-9722 as monotherapy or in combination with temozolomide in patients with solid tumors” (Cancer Chemotherapy and Pharmacology, 2014).

How the values were obtained:
[1] = test system: patients with advanced solid tumors; test: Phase 1 dose-escalation: safety, DLT and MTD
Protocol: The study consisted of a screening period to determine patient eligibility, a 14-day cycle in which CEP-9722 was administered once daily as monotherapy, and subsequent 28-day cycles in which CEP-9722 and temozolomide were administered as combination therapy. In cycle 1, the first patient in each dosing cohort received CEP-9722 on days 1, 3, 4, and 5, while other patients in each cohort received CEP-9722 on days 1–5. In cycle 2, patients received CEP-9722 and temozolomide on days 1–5 (Supplemental Fig.). CEP-9722 was escalated from a starting dose of 150 mg/day up to 1,000 mg/day, and temozolomide was given at the dose of 150 mg/m^2/day at all dose levels of CEP-9722. Both CEP-9722 and temozolomide were administered in the fasted state.
Patients were enrolled in cohorts of 3. Enrollment in the next cohort commenced when the third patient in the current cohort had completed day 28 of cycle 2 without a dose-limiting toxicity (DLT).
Safety was assessed using adverse event data, clinical laboratory test results, vital signs measurement, ECG findings, physical examination findings, ECOG performance status, and concomitant medication usage.

advanced solid tumors = test: Best tumor response according to RECIST 1.0; type: in vivo, human
Protocol: Tumor assessment was performed within 4 weeks before the first dose of study drug and within the fourth week of cycle 2 using computed tomography or magnetic resonance imaging with contrast. In patients who continued treatment, tumor assessment was performed every 2 cycles and at the end of treatment visit, at the discretion of the investigator.

[2] = Plasma pharmacokinetics of CEP-8983 after oral CEP-9722; type: in vivo, human; conditions: patients
Protocol: Pharmacokinetic serum samples were collected on day 1 of cycle 1 pre-dose and 0.5, 1, 2, 3, 4, 6, 8, 10, and 24 h post-dose; and on day 5 of cycle 1 and cycle 2 pre-dose, and 0.5, 1, 2, 3, 4, 6, 8, 10, 24, and 48 h post-dose. Urine samples were obtained on day 1 of cycle 1 during 4 intervals in the 24 h following study drug administration. Pharmacokinetic parameters (area under the plasma drug concentration–time curve from time 0 to infinity [AUC0–∞], AUC from time 0 to the time of the last measurable drug concentration [AUC0–t], AUC for 1 dosing interval [AUCτ] following multiple doses, maximum observed plasma concentration [C max], and time to maximum observed plasma concentration [T max]) were summarized at each visit (day 1 of cycle 1 and day 5 of cycles 1 and 2) using descriptive statistics.

[3] = test system: PARP in peripheral blood mononuclear cells (PBMCs); test: PAR ELISA in PBMCs (PARP inhibition, pharmacodynamics); type: in vivo, human
Protocol: Pharmacodynamics were assessed by the measurement of PAR concentrations in PBMCs. PBMCs were isolated at site, and the frozen cell pellet was sent to a central laboratory (Trevigen Inc., Gaithersburg, MD, USA) for processing and analysis by PAR enzyme-linked immunosorbent assay (ELISA). Pharmacodynamic samples were collected on 2 consecutive days at screening visits and on days 1, 5 (pre-dose and 2 h [cycle 1 only], 6 h, and 24 h post-dose), and 8 (at the time of hematology laboratory testing). The PAR concentrations in the 2 screening samples and the day 1 pre-dose sample were averaged to provide a baseline value, and the percentage inhibition from baseline was calculated in the post-dose samples.

[4] = cycle 1, single-agent CEP-9722, total, all dose levels (N=26)
[5] = cycles ≥2, CEP-9722 combined with temozolomide, 150 mg/day (N=3)
[6] = cycles ≥2, CEP-9722 combined with temozolomide, 300 mg/day (N=6)
[7] = cycles ≥2, CEP-9722 combined with temozolomide, 500 mg/day (N=3)
[8] = cycles ≥2, CEP-9722 combined with temozolomide, 750 mg/day (N=11)
[9] = cycles ≥2, CEP-9722 combined with temozolomide, 1,000 mg/day (N=3)
[10] = cohort 1, 150 mg/day, 2 evaluated
[11] = cohort 2, 300 mg/day, 6 evaluated
[12] = cohort 3, 500 mg/day, 3 evaluated
[13] = cohort 4, 750 mg/day, 9 evaluated
[14] = cohort 5, 1,000 mg/day, 2 evaluated

## COc1cccc2[nH]c3c4c(c5c(c3c12)C(=O)N(CN1CCN(C)CC1)C5=O)CCC4 [CEP-9722]
[1]; [4]
  Anorexia (treatment-related adverse event, all grades): 3 (12) N patients (%)
  Asthenia (treatment-related adverse event, all grades): 5 (19) N patients (%)
  Blood creatinine phosphokinase increased (treatment-related adverse event, all grades): 2 (8) N patients (%)
  Constipation (treatment-related adverse event, all grades): 2 (8) N patients (%)
  Diarrhea (treatment-related adverse event, all grades): 7 (27) N patients (%)
  Fatigue (treatment-related adverse event, all grades): 4 (15) N patients (%)
  Headache (treatment-related adverse event, all grades): 10 (38) N patients (%)
  Nausea (treatment-related adverse event, all grades): 12 (46) N patients (%)
  Vomiting (treatment-related adverse event, all grades): 7 (27) N patients (%)
[1]; [5]
  Anemia (treatment-related adverse event, all grades): 0 N patients (%)
  Anorexia (treatment-related adverse event, all grades): 0 N patients (%)
  Aspartate aminotransferase increased (treatment-related adverse event, all grades): 0 N patients (%)
  Asthenia (treatment-related adverse event, all grades): 0 N patients (%)
  Constipation (treatment-related adverse event, all grades): 0 N patients (%)
  Diarrhea (treatment-related adverse event, all grades): 0 N patients (%)
  Dyspepsia (treatment-related adverse event, all grades): 0 N patients (%)
  Fatigue (treatment-related adverse event, all grades): 0 N patients (%)
  Gamma-glutamyltransferase increased (treatment-related adverse event, all grades): 0 N patients (%)
[1]; [6]
  Anemia (treatment-related adverse event, all grades): 0 N patients (%)
  Anorexia (treatment-related adverse event, all grades): 1 (17) N patients (%)
  Aspartate aminotransferase increased (treatment-related adverse event, all grades): 0 N patients (%)
  Asthenia (treatment-related adverse event, all grades): 0 N patients (%)
  Constipation (treatment-related adverse event, all grades): 0 N patients (%)
  Diarrhea (treatment-related adverse event, all grades): 0 N patients (%)
  Dyspepsia (treatment-related adverse event, all grades): 0 N patients (%)
  Gamma-glutamyltransferase increased (treatment-related adverse event, all grades): 0 N patients (%)
[1]; [7]
  Anemia (treatment-related adverse event, all grades): 1 (33) N patients (%)
  Anorexia (treatment-related adverse event, all grades): 0 N patients (%)
  Aspartate aminotransferase increased (treatment-related adverse event, all grades): 1 (33) N patients (%)
  Asthenia (treatment-related adverse event, all grades): 2 (67) N patients (%)
  Constipation (treatment-related adverse event, all grades): 0 N patients (%)
  Diarrhea (treatment-related adverse event, all grades): 0 N patients (%)
  Dyspepsia (treatment-related adverse event, all grades): 0 N patients (%)
  Fatigue (treatment-related adverse event, all grades): 0 N patients (%)
  Gamma-glutamyltransferase increased (treatment-related adverse event, all grades): 1 (33) N patients (%)
[1]; [8]
  Anemia (treatment-related adverse event, all grades): 1 (9) N patients (%)
  Anorexia (treatment-related adverse event, all grades): 1 (9) N patients (%)
  Aspartate aminotransferase increased (treatment-related adverse event, all grades): 1 (9) N patients (%)
  Asthenia (treatment-related adverse event, all grades): 4 (36) N patients (%)
  Diarrhea (treatment-related adverse event, all grades): 3 (27) N patients (%)
  Dyspepsia (treatment-related adverse event, all grades): 2 (18) N patients (%)
  Fatigue (treatment-related adverse event, all grades): 4 (36) N patients (%)
  Gamma-glutamyltransferase increased (treatment-related adverse event, all grades): 2 (18) N patients (%)
[1]; [9]
  Anemia (treatment-related adverse event, all grades): 0 N patients (%)
  Aspartate aminotransferase increased (treatment-related adverse event, all grades): 0 N patients (%)
  Asthenia (treatment-related adverse event, all grades): 0 N patients (%)
  Constipation (treatment-related adverse event, all grades): 1 (33) N patients (%)
  Dyspepsia (treatment-related adverse event, all grades): 0 N patients (%)
  Fatigue (treatment-related adverse event, all grades): 1 N patients (%)
  Gamma-glutamyltransferase increased (treatment-related adverse event, all grades): 0 N patients (%)
[1]; human, in vivo
  abdominal pain, adverse event: 35%
  anemia, adverse event: 23%
  anorexia, adverse event: 35%
  asthenia, adverse event: 42%
  constipation, adverse event: 50%
  diarrhea, adverse event: 42%
  fatigue, adverse event: 31%
  grade 3–4 lymphopenia (laboratory): 5 patients
  headache, adverse event: 50%
  nausea, adverse event: 77%
  patients with treatment-related adverse events (TRAEs): 24 (92 %) patients (%)
  recommended phase 2 dose: 750 mg/day
  vomiting, adverse event: 65%
[1]; human, in vivo, 14 day
  Abdominal pain (treatment-related adverse event, all grades): 2 (8) N patients (%)
[1]; in vivo
  central review of ECGs: no clinically significant abnormalities
  patients who withdrew due to adverse events: Four patients
  patients with dose delays due to hematological toxicity: three patients
  patients with grade 3–4 laboratory hematologic toxicities: Six patients
[1]; with temozolomide 150 mg/m^2
  maximum tolerated dose (MTD): 750 mg/day
Advanced solid tumors; [10]
  Partial response: 0 patients
  Progressive disease: 2 patients
  Stable disease: 0 patients
Advanced solid tumors; [11]
  Partial response: 0 patients
  Progressive disease: 5 patients
  Stable disease: 1 patients
Advanced solid tumors; [12]
  Partial response: 0 patients
  Progressive disease: 1 patients
  Stable disease: 2 patients
Advanced solid tumors; [13]
  Partial response: 0 patients
  Progressive disease: 8 patients
  Stable disease: 1 patients
Advanced solid tumors; [14]
  Partial response: 1 patients
  Progressive disease: 1 patients
  Stable disease: 0 patients
Advanced solid tumors; melanoma patient, 1,000 mg/day with temozolomide
  reduction in target lesions (RECIST) in the patient with partial response: 58%
Advanced solid tumors; melanoma patient, 1,000 mg/day with temozolomide, first observed after 6 cycles
  duration of partial response: 5.8 months
Advanced solid tumors; total, all cohorts, 22 evaluated
  Progressive disease: 17 patients
[2]
  conversion of CEP-9722 into its active form: rapid
[3]; 2 and 6 h post-dose, cycle 1, without temozolomide
  PAR concentrations in PBMCs relative to baseline: reduction in PAR concentrations relative to baseline was observed
[3]; 6 h post-dose, cycle 2, with temozolomide
  reduction in PAR concentrations in PBMCs: less marked
[3]; 24 h post-dose sample
  inhibitory effects on PAR production: lost
